Reference: US5869448A, “Cyclic CS-1 peptidomimetics, compositions and methods of using same” (Cytel Corporation, priority 1995, dated 1999)
Values joined by “and” are separate entries in the source; they are usually repeats but may differ in a detail not shown here. Identical values can stand only once. One block for each compound: values may come before it. Positions of bridges follow the written chain, without caps; N, C: chain ends. Residues, ends and D or L forms follow the SMILES beside them. No end group written: not given here. *: point of attachment. PhAc = O=C(Cc1ccccc1)*

Experiments:
[1] = test system: Porcine peripheral blood lymphocytes; experiment: In vitro porcine allograft model, transendothelial lymphocyte migration; assay type: cell-based; details: 10 μg/ml in the medium, IL-1β-stimulated SMC
Protocol: A similar study is carried out in vitro using porcine coronary artery endothelial cells (EC; as are present in the IEL) and smooth muscle cells (SMC; as are present in the medial layer of the artery). The two cell types are cultured using a membrane transwell system, with the SMC on the bottom layer in M-199 medium (Gibco Labs.). The SMC are stimulated with 100 ng/ml of interleukin-1β (IL-1β) for 24 hours prior to the start of the assay. Porcine peripheral blood lymphocytes are separated by Ficoll-Hypaque, radiolabeled and incubated overnight (about 18 hours) on the EC.
Transendothelial lymphocyte migration in the IL-1β-stimulated SMC is observed as compared to unstimulated SMC (p<0.05).

[2] = Retention of potency in PBS containing 10 percent mouse or human serum; assay type: in vitro ADME; details: PBS at 7.2-7.4 with 10 percent mouse or human serum
[3] = in vivo; cited from earlier work
VLA-4/CS-1 = target: T1, VLA-4/CS-1 (Homo sapiens, UniProt P05556+P13612); experiment: In vitro inhibition of binding of 51Cr-labeled Jurkat cells to solid phase-bound CS-1 peptide; assay type: cell-based; details: for inhibition potency relative to the Standard 10-mer of SEQ ID NO:6: times more potent than standard 10-mer
T1 construct: inflammatory cells that contain the VLA-4 receptor [Jurkat cells; host or cells: Jurkat (human T lymphoblastic line)
T1 sequence (P13612 34-1032): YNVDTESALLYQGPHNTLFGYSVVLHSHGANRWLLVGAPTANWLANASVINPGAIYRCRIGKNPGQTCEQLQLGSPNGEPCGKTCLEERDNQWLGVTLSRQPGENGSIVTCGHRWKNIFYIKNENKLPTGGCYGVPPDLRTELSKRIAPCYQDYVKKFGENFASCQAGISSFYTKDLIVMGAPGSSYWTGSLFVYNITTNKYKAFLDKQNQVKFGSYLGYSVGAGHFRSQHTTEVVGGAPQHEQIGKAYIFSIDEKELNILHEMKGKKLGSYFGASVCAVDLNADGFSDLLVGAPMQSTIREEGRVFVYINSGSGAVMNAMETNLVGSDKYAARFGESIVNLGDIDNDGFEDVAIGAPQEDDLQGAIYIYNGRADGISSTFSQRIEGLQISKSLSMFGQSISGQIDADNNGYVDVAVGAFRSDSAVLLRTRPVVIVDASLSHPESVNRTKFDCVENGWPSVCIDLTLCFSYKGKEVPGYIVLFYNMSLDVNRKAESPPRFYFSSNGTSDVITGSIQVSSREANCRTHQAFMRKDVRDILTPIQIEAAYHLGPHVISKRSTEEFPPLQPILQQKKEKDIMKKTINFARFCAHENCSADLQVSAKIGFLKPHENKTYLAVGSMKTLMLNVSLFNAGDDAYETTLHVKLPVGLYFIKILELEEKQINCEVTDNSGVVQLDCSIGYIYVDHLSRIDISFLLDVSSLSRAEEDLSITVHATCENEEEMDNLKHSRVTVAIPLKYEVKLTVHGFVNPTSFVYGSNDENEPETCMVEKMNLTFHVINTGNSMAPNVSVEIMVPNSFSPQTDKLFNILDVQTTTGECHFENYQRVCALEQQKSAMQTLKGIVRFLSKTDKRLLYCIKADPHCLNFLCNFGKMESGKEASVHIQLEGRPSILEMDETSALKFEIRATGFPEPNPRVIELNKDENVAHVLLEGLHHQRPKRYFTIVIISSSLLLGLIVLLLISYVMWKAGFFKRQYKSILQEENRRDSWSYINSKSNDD
T1 sequence (P05556 21-798): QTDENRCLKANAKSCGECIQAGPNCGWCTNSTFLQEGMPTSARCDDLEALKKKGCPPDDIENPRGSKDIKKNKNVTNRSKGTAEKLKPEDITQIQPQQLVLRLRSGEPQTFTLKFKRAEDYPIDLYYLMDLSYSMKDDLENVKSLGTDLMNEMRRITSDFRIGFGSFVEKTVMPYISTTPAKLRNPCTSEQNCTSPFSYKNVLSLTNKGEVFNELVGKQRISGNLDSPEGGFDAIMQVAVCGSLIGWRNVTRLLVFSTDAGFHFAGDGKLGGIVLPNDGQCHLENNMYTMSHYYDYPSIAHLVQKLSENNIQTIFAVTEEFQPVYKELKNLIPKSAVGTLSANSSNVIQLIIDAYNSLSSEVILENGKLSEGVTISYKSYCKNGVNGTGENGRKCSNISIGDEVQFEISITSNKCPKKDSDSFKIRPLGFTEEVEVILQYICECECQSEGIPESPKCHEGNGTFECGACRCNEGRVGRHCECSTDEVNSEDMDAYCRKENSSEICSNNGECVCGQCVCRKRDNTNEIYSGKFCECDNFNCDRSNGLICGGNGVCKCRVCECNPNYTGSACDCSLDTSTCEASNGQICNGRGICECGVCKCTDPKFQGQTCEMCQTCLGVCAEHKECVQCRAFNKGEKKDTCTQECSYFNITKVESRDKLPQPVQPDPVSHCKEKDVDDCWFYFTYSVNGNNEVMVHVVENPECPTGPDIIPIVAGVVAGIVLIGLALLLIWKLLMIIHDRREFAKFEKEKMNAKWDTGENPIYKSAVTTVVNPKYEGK
Protocol: Binding inhibition is measured here as a concentration of peptide that inhibits one-half the binding between a standard number of Jurkat cells and a standard amount of CS-1 peptide bound to the surface of a microtiter plate well. Those concentrations are conveniently expressed as IC50 values, smaller numbers indicating a lower concentration required to inhibit 50 percent binding and therefore greater potency. Further specifics of this assay are provided hereinafter.
Jurkat cells (ATCC TIB 152), a human T lymphoblastic line, labeled with ^51 chromium were used to assay in vitro binding inhibition provided by various peptides discussed herein.
The plates were prepared as follows: The 25-mer CS-1 peptide (SEQ ID NO:5) dissolved at 0.5-1 μg/ml in a buffer of 0.1M NaHCO3 at pH 9.5 that also contained 10 μg/ml of bovine serum albumin (BSA) or a conjugate of the CS-1 peptide linked to ovalbumin (CS-1-OVA) dissolved at 1-2.5 μg/ml in the same buffer was used as the substrate. Each well of the microtiter plates was coated with 50 μl of substrate or buffer alone for controls. The wells were permitted to dry out completely and were then rinsed twice with PBS at pH 7.4. Non-specific binding sites of each well were then blocked using 200 μl per well of RPMI/1 percent BSA for two hours at room temperature. Both solid phase-affixed substrates provided similar results.
Jurkat cells (3-5×10^6 cells) were placed into a 15 ml FALCON™ round-bottom tube with a cap. The tube was centrifuged, and the extra medium was then removed.
Two hundred microliters of a ^51 Cr labeling solution were added to the centrifuged cells and maintained in contact with the cells for 90-120 minutes in a warm room. This procedure typically provides about 50,000-100,000 cpm/well with about 80-100 percent cell viability. Longer contact times provide a greater amount of labeling but lower cell viability.
The labeled cells were washed with (i) complete medium, (ii) 1 mM EDTA/PBS and then (iii) RPM1/1 percent BSA free of serum components. The cells were centrifuged after each washing. The cells were finally resuspended in serum-free RPMI/1 percent BSA at a concentration of 1×10^6 viable cells/ml, which provides a concentration that is diluted by one-half in the assay.
Cyclic inhibitor peptides were prepared as stock solutions at 20 mg/ml in DMSO in 1.5 ml cryogenic screwcap vials, and were stored at -70° C. Using FLOW™ round-bottom or V-bottom microtiter plates, the inhibitor peptides were prepared at twice the assay concentration in RPMI/1 percent BSA at 60 μl/well.
Four initial dilutions were typically used.
The ^51 Cr-labeled cells (1×10^6 cells at 60 μl/well) were then admixed with the diluted cyclic peptide solutions. The admixtures were maintained at room temperature (about 22° C.) for 30 minutes.
One hundred microliters of each inhibitor peptide/cell admixture were transferred to the substrate-coated wells. This was done in triplicate for each dilution. The resulting plates were incubated for 30 minutes at 37° C. and then washed gently three times with RPMI/1 percent BSA at 200 μl/well. Binding was observed microscopically, particularly after the second wash.
The bound cells were then lysed by the addition of a 0.5 percent solution of sodium dodecylsulfate in water at 100 μl/well. The resulting solutions were then processed for counting and calculation of IC50 values following usual procedures. Appropriate positive and negative controls were used with each plate so that the results of separate assays could be normalized and compared.
The potency data of Table 1 and Table 2 are so normalized. The absolute IC50 value for the peptide of SEQ ID NO:7 is 0.3 μM.

VLA-4/sVCAM-1 = target: T2, VLA-4/sVCAM-1 (Homo sapiens, UniProt P05556+P13612); experiment: In vitro inhibition of binding of Jurkat cells to solid phase-bound sVCAM-1; assay type: cell-based
T2 construct: host or cells: Jurkat cells (VLA-4). sVCAM-1 was made in house in transfected human 293 cells (ATCC CRL 1573) and purified from supernatant
T2 sequence (P13612 34-1032): as the sequence (P13612 34-1032) above
T2 sequence (P05556 21-798): as the sequence (P05556 21-798) above
Protocol: Assays conducted using sVCAM-1 as solid phase-bound antigen were carried out substantially identically to those using CS-1. The sVCAM-1 polypeptide used had the same amino acid residue sequence as the materials described in Lobb et al., Biochem. Biophys. Res. Commun., 178:1498-1504 (1991) and Cybulsky et al., Proc. Natl. Acad. Sci., USA, 88:7859-7863 (1991). Human embryonal kidney line 293 (ATCC CRL 1573) cells were co-transfected with a plasmid (pCDNAI;invitrogen) containing the sVCAM-1 DNA sequence and plasmid pSV2-neo [Southern et al., J. Mol. Appl. Gen., 1:327341 (1992)]. Cells were selected in DMEM, 10 percent fetal bovine serum and 600 μg/ml Geneticin. sVCAM-1 was purified from supernatants using a column containing monoclonal antibody P3H12 (anti-human VCAM-1) coupled to Sepharose 4B. The sVCAM-1 was eluted using 0.1M glycine at pH 2.5 following 50 column washes with PBS, pH 7.2. The eluate was immediately neutralized and dialyzed against PBS for use.

[4] = Table 2, normalized, relative to standard peptide of SEQ ID NO:6
[5] = Table 1, normalized IC50, standard peptide of SEQ ID NO:6 = 1

Compound: CC(C)C[C@@H]1NC(=O)[C@H](Cc2ccccc2)NC(=O)[C@@H](N)CSSC[C@@H](C(N)=O)NC(=O)[C@H](CO)NC(=O)[C@@H]2CCCN2C(=O)[C@H](Cc2ccccc2)NC(=O)[C@H](CC(=O)O)NC1=O [SEQ ID NO:13, CFLDFPSC--NH2] (H-CFLDFPSC-NH2; disulfide 1-8)
- transendothelial lymphocyte migration [1]: reduces lymphocyte migration

Compound: CS-1 peptide: 25-residue (25-mer) CS-1 portion of fibronectin that binds to the VLA-4 receptor (DELPQLVTLPHPNLHGPEILDVPST) [reference compound]
- time in which potency is lost [2]: less than one
- clearance from blood circulation [3]: rapidly cleared

Compound: NC(=O)[C@@H]1CSSC[C@H](NC(=O)Cc2ccccc2)C(=O)N[C@@H](CC(=O)O)C(=O)N[C@@H](Cc2ccccc2)C(=O)N1 [SEQ ID NO:7, N-phenylacetyl-Cys-Asp-Phe-Cys-NH2] (PhAc-CDFC-NH2; disulfide 1-4)
- potency relative to the best linear peptide (XLDFZ), Jurkat cell binding to CS-1 (VLA-4/CS-1): about two-thirds
- IC50 (VLA-4/CS-1; Jurkat cells, solid phase-bound CS-1, read-out: absolute IC50 value): 300 nM
- Relative Potency (VLA-4/CS-1; [4]): 954
- CS-1 binding inhibition potencies relative to each other (VLA-4/CS-1; XLDFp = 1): ~1.8
- inhibition potency relative to the Standard 10-mer of SEQ ID NO:6 (VLA-4/CS-1): 500-600 and ~563
- potency relative to the best linear peptide (XLDFZ), Jurkat cell binding to sVCAM-1 (VLA-4/sVCAM-1): about 3 times
- loss of potency after 24 hours ([2]; 24 hours): no loss of potency

Compound: SFDFS-NH2 [compound 31]
- Relative Potency (VLA-4/CS-1; [5]): < 1

Compound: CC(C)C[C@H](N)C(=O)N[C@@H](CC(=O)O)C(=O)N[C@H](C(N)=O)C(C)C [LDV--NH2, reference compound] (H-Leu-Asp-Val-NH2)
- Relative Potency (VLA-4/CS-1; [5]): 0
- inhibition potency relative to the Standard 10-mer of SEQ ID NO:6 (VLA-4/CS-1): zero

Now from value to compound:

- Relative Potency (VLA-4/CS-1; [4]): 81.4
Compound: CC(C)C[C@@H]1NC(=O)[C@H](Cc2ccccc2)NC(=O)[C@@H](N)CSSC[C@@H](C(N)=O)NC(=O)[C@H]([C@@H](C)O)NC(=O)[C@H](CO)NC(=O)[C@@H]2CCCN2C(=O)[C@H](Cc2ccccc2)NC(=O)[C@H](CC(=O)O)NC1=O [SEQ ID NO:15, CFLDFPSTC--NH2] (H-CFLDFPSTC-NH2; disulfide 1-9)

- Relative Potency (VLA-4/CS-1; [5]): 41
Compound: CC(=O)N[C@@H](Cc1ccccc1)C(=O)N[C@@H](CS)C(=O)N[C@@H](CC(=O)O)C(=O)N[C@@H](Cc1ccccc1)C(=O)N[C@@H](CS)C(N)=O [compound 18] (Ac-FCDFC-NH2)

- Relative Potency (VLA-4/CS-1; [5]): 6
Compound: CC(C)C[C@@H]1NC(=O)[C@H](Cc2ccccc2)NC(=O)[C@H](CCC(=O)O)NC(=O)[C@@H](N)CSSC[C@@H](C(N)=O)NC(=O)[C@H](CO)NC(=O)[C@@H]2CCCN2C(=O)[C@H](Cc2ccccc2)NC(=O)[C@H](CC(=O)O)NC1=O [compound 24] (H-CEFLDFPSC-NH2; disulfide 1-9)
